Measured values taken from patent US12064437B2, “Methods for treating systemic lupus erythematosus and the use of biomarkers as a predictor of clinical sensitivity to therapies” (CELGENE CORPORATION, priority 2020, dated 2024).

Legend:
[1] = system: subjects with active autoantibody-positive SLE; experiment: Phase 2b study in SLE: SLE Responder Index 4 (SRI-4) response at week 24; format: in vivo, human; details: for Percentage of Subjects Who Achieve SRI(4) at Week 24, n/m (%) / SRI(4) at Week 24, Stratified Difference (%) (95% CI), Iberdomide - Placebo: ITT
Protocol: (§1) The pharmacokinetics, pharmacodynamics (PD), efficacy, and safety of oral iberdomide ((S)-3-[4-({4-[(morpholin-4-yl)methyl]phenyl}methoxy)-1-oxo-1,3-dihydro-2H-isoindol-2-yl]piperidine-2,6-dione-hydrogen chloride (1/1)) were evaluated in a phase 2b study in subjects with active autoantibody-positive SLE.
(§2) Adult SLE patients (N=288) with a ≥6-month history of SLE and SLE Disease Activity Index (SLEDAI 2K) ≥6 were randomized to placebo (n=83) or iberdomide 0.15 mg QD (n=42), 0.3 mg QD (n=82), or 0.45 mg QD (n=81). Clinical response was determined by the SLE Responder Index 4 (SRI-4) at week 24 for all patients and within pre-specified biomarker-enriched subsets based on expression of Ikaros, Aiolos, the Type 1 IFN signature (IFI27, IFI44, IFI44L, RSAD2), and other gene modules measured from fingerstick blood collected at baseline (Modular Immune Profile Test, DxTerity Diagnostics, Inc.). The primary objective of the study was to evaluate the clinical efficacy of 3 doses of iberdomide (0.45 mg once per day [QD], 0.30 mg QD, or 0.15 mg QD) compared to placebo, for the treatment of active SLE using the SLE Responder Index at Week 24.

[2] = system: subjects with active autoantibody-positive SLE; experiment: Phase 2b study in SLE: BILAG-Based Combined Lupus Assessment (BICLA) response; format: in vivo, human
Protocol: as §1, §2
The treatment comparison with placebo (33.3%) for BICLA was larger in the subgroup of subjects with baseline IKZF3 high, but only for 0.45 mg QD iberdomide (52.0%) and 0.15 mg QD iberdomide (41.7%).

[3] = IKZF3 (Aiolos): High at baseline, 0.45 mg QD
[4] = Ikaros IFN: High at baseline, 0.15 mg QD
[5] = Ikaros IFN: High at baseline, 0.30 mg QD
[6] = Ikaros IFN: High at baseline, 0.45 mg QD
[7] = T cell Exhaustion: Low at baseline, 0.15 mg QD
[8] = T cell Exhaustion: Low at baseline, 0.30 mg QD
[9] = T cell Exhaustion: Low at baseline, 0.45 mg QD
[10] = Type 1 IFN: High at baseline, 0.15 mg QD
[11] = Type 1 IFN: High at baseline, 0.30 mg QD
[12] = Type 1 IFN: High at baseline, 0.45 mg QD

O=C1CC[C@H](N2Cc3c(OCc4ccc(CN5CCOCC5)cc4)cccc3C2=O)C(=O)N1 [iberdomide, (S)-3-[4-({4-[(morpholin-4-yl)methyl]phenyl}methoxy)-1-oxo-1,3-dihydro-2H-isoindol-2-yl]piperidine-2,6-dione-hydrogen chloride (1/1)]
Percentage of Subjects Who Achieve SRI(4) at Week 24, n/m (%) ([1]; IKZF3 (Aiolos): High at baseline, 0.15 mg QD): 5/14 (35.7) % | SRI(4) at Week 24, Stratified Difference (%) (95% CI), Iberdomide - Placebo ([1]; IKZF3 (Aiolos): High at baseline, 0.15 mg QD, listed as Iberdomide): 2.2 (−24.82, 31.94) % | Percentage of Subjects Who Achieve SRI(4) at Week 24, n/m (%) ([1]; IKZF3 (Aiolos): High at baseline, 0.30 mg QD): 9/32 (28.1) % | SRI(4) at Week 24, Stratified Difference (%) (95% CI), Iberdomide - Placebo ([1]; IKZF3 (Aiolos): High at baseline, 0.30 mg QD, listed as Iberdomide): −7.1 (−31.13, 16.94) % | Percentage of Subjects Who Achieve SRI(4) at Week 24, n/m (%) [1, 3]: 23/36 (63.9) % | SRI(4) at Week 24, Stratified Difference (%) (95% CI), Iberdomide - Placebo [1, 3]: 32.9% | SRI(4) at Week 24, Stratified Difference (%) (95% CI), Iberdomide - Placebo ([1]; IKZF3 (Aiolos): High at baseline, 0.45 mg QD, listed as Iberdomide): 32.9 (7.74, 52.90) % | Percentage of Subjects Who Achieve SRI(4) at Week 24, n/m (%) [1, 4]: 16/30 (53.3) % | SRI(4) at Week 24, Stratified Difference (%) (95% CI), Iberdomide - Placebo [1, 4]: 18.6 (−3.69, 39.05) % | Percentage of Subjects Who Achieve SRI(4) at Week 24, n/m (%) [1, 5]: 21/49 (42.9) % | SRI(4) at Week 24, Stratified Difference (%) (95% CI), Iberdomide - Placebo [1, 5]: 8.9 (−10.47, 27.36) % | Percentage of Subjects Who Achieve SRI(4) at Week 24, n/m (%) [1, 6]: 36/62 (58.1) % | SRI(4) at Week 24, Stratified Difference (%) (95% CI), Iberdomide - Placebo [1, 6]: 24.3% | SRI(4) at Week 24, Stratified Difference (%) (95% CI), Iberdomide - Placebo ([1]; Ikaros IFN: High at baseline, 0.45 mg QD, listed as Iberdomide): 24.3 (5.45, 40.76) % | SRI(4) at Week 24, Stratified Difference (%) (95% CI), Iberdomide - Placebo ([1]; Overall Subjects, 0.15 mg QD): 11.4% | Percentage of Subjects Who Achieve SRI(4) at Week 24, n/m (%) ([1]; Overall Subjects, 0.15 mg QD, nonresponder imputation): 20/42 (47.6) % | SRI(4) at Week 24, Stratified Difference (%) (95% CI), Iberdomide - Placebo ([1]; Overall Subjects, 0.15 mg QD, listed as Iberdomide): 11.4 (−6.57, 29.00) % | SRI(4) at Week 24, Stratified Difference (%) (95% CI), Iberdomide - Placebo ([1]; Overall Subjects, 0.30 mg QD): 5.0% | Percentage of Subjects Who Achieve SRI(4) at Week 24, n/m (%) ([1]; Overall Subjects, 0.30 mg QD, nonresponder imputation): 33/82 (40.2) % | SRI(4) at Week 24, Stratified Difference (%) (95% CI), Iberdomide - Placebo ([1]; Overall Subjects, 0.30 mg QD, listed as Iberdomide): 5.0 (−9.77, 19.48) % | SRI(4) at Week 24, Stratified Difference (%) (95% CI), Iberdomide - Placebo ([1]; Overall Subjects, 0.45 mg QD): 19.4% | Percentage of Subjects Who Achieve SRI(4) at Week 24, n/m (%) ([1]; Overall Subjects, 0.45 mg QD, nonresponder imputation): 54.3% | Percentage of Subjects Who Achieve SRI(4) at Week 24, n/m (%) ([1]; Overall Subjects, 0.45 mg QD, nonresponder imputation, listed as Iberdomide): 44/81 (54.3) % | SRI(4) at Week 24, Stratified Difference (%) (95% CI), Iberdomide - Placebo ([1]; Overall Subjects, 0.45 mg QD, listed as Iberdomide): 19.4 (4.12, 33.42) % | Percentage of Subjects Who Achieve SRI(4) at Week 24, n/m (%) [1, 7]: 13/29 (44.8) % | SRI(4) at Week 24, Stratified Difference (%) (95% CI), Iberdomide - Placebo [1, 7]: 5.4 (−15.51, 26.63) % | Percentage of Subjects Who Achieve SRI(4) at Week 24, n/m (%) [1, 8]: 28/65 (43.1) % | SRI(4) at Week 24, Stratified Difference (%) (95% CI), Iberdomide - Placebo [1, 8]: 4.7 (−12.69, 21.53) % | Percentage of Subjects Who Achieve SRI(4) at Week 24, n/m (%) [1, 9]: 39/66 (59.1) % | SRI(4) at Week 24, Stratified Difference (%) (95% CI), Iberdomide - Placebo [1, 9]: 21.9 (4.30, 37.77) % | Percentage of Subjects Who Achieve SRI(4) at Week 24, n/m (%) [1, 10]: 15/25 (60.0) % | SRI(4) at Week 24, Stratified Difference (%) (95% CI), Iberdomide - Placebo [1, 10]: 25.6% | SRI(4) at Week 24, Stratified Difference (%) (95% CI), Iberdomide - Placebo ([1]; Type 1 IFN: High at baseline, 0.15 mg QD, listed as Iberdomide): 25.6 (1.54, 46.35) % | Percentage of Subjects Who Achieve SRI(4) at Week 24, n/m (%) [1, 11]: 21/49 (42.9) % | SRI(4) at Week 24, Stratified Difference (%) (95% CI), Iberdomide - Placebo [1, 11]: 10.6 (−8.93, 29.11) % | Percentage of Subjects Who Achieve SRI(4) at Week 24, n/m (%) [1, 12]: 34/57 (59.6) % | SRI(4) at Week 24, Stratified Difference (%) (95% CI), Iberdomide - Placebo [1, 12]: 26.8% | SRI(4) at Week 24, Stratified Difference (%) (95% CI), Iberdomide - Placebo ([1]; Type 1 IFN: High at baseline, 0.45 mg QD, listed as Iberdomide): 26.8 (7.49, 43.54) % | SRI-4 clinical efficacy ([1]; double-negative IFN Low Aiolos Low population, week 24): no clinical efficacy | percentage of subjects who achieved BICLA response at Week 24 ([2]; baseline IKZF3 high, 0.15 mg QD): 41.7% | percentage of subjects who achieved BICLA response at Week 24 ([2]; baseline IKZF3 high, 0.45 mg QD): 52.0% | BICLA response at Week 24, stratified difference from placebo ([2]; overall subjects with baseline BILAG 2004 1A or 2B scores, 0.15 mg QD): 0.3% | percentage of subjects who achieved BICLA response at Week 24 ([2]; overall subjects with baseline BILAG 2004 1A or 2B scores, 0.15 mg QD, NRI, ITT): 37.1% | BICLA response at Week 24, stratified difference from placebo ([2]; overall subjects with baseline BILAG 2004 1A or 2B scores, 0.30 mg QD): −3.6% | percentage of subjects who achieved BICLA response at Week 24 ([2]; overall subjects with baseline BILAG 2004 1A or 2B scores, 0.30 mg QD, NRI, ITT): 33.3% | BICLA response at Week 24, stratified difference from placebo ([2]; overall subjects with baseline BILAG 2004 1A or 2B scores, 0.45 mg QD): 1.0% | percentage of subjects who achieved BICLA response at Week 24 ([2]; overall subjects with baseline BILAG 2004 1A or 2B scores, 0.45 mg QD, NRI, ITT): 37.3%
